Entries after “also recorded” stand apart in the source; their conditions may differ. Like-named read-outs stand apart in the source and are kept apart here.
What was measured:
[1] = test system: anti-immunoglobulin E-stimulated CD63 expression on basophils; test: CD63 assay: ex vivo anti-IgE-stimulated CD63 expression on whole-blood basophils; assay type: cell-based, human
[2] = Aqueous solubility of mono-mesylate salt; assay type: physicochemical
[3] = Safety and tolerability, FIH study; assay type: in vivo, human
[4] = Safety and tolerability, fed studies; assay type: in vivo, human; settings: n = 40
[5] = for C trough: Day 7 (steady state), mean (%CV)
[6] = fed vs fasted, dose-dependent
[7] = target: uridine 5′-diphospho-glucuronosyltransferase (UGT) 1A1; settings: read-out: UGT1A1 inhibition IC50; in vitro; cited from earlier work
[8] = test system: relapsed or refractory CLL; settings: 800 mg twice-daily oral, relapsed or refractory CLL (n = 41), cited from earlier work
clinical [9] = settings: human, in vivo, po
clinical [10] = settings: human, in vivo; for Tmax: t max; for Tmax / half-life: fasted; for half-life: t ½
B cell malignancies = settings: 200 or 250 mg twice daily, cited from earlier work
[11] = FIH study (fasted), multiple dose, n = 56
[12] = FIH study (fasted), single dose, n = 40
[13] = po, 200 mg, Day 7 (steady state), 200 mg twice daily oral, median (interquartile range)
[14] = po, 600 mg, Day 7 (steady state), 600 mg twice daily oral, median (interquartile range)
[15] = po, 1200 mg, Day 7 (steady state), 1200 mg twice daily oral, median (interquartile range)

## c1cn2cc(-c3ccc4cn[nH]c4c3)nc(Nc3ccc(N4CCOCC4)cc3)c2n1 [entospletinib, Entospletinib]
[1]; doses ≥600 mg twice daily, 12 h post-dose
  inhibition of CD63 expression maintained at C trough: ≥ 63%
[1]; doses ≥600 mg twice daily, peak at 2–4 h post-dose
  maximal mean inhibition of CD63 expression: ≥ 86%
[1]; plasma concentration–response, percentage of baseline
  EC50 for inhibition of CD63: 0.429 µg/mL
[2]; aqueous buffer, pH 2
  solubility: 3000 µg/mL
[2]; aqueous medium
  solubility: < 1 µg/mL
[3]; FIH and fed studies
  severity of adverse events: mild to moderate; also recorded: mild or moderate
[3]; FIH study
  discontinuations due to treatment-related AEs: no AE-driven study drug discontinuations
[3]; [11]
  Laboratory abnormality Grade ≥3: ALT: 1 (1.8) n (%)
  Laboratory abnormality Grade ≥3: AST: 1 (1.8) n (%)
  Laboratory abnormality Grade ≥3: Total bilirubin: 1 (1.8) n (%)
  Treatment-related AE: Headache: 18 (32.1) n (%)
  Treatment-related AE: Oropharyngeal pain: 6 (10.7) n (%)
  Treatment-related AE: Rhinorrhea: 7 (12.5) n (%)
[3]; [12]
  Laboratory abnormality Grade ≥3: Creatinine kinase: 1 (2.5) n (%)
  Treatment-related AE: Headache: 5 (12.5) n (%)
  Treatment-related AE: Nausea: 6 (10.7) n (%)
[3]; single or multiple oral doses, healthy adults
  tolerability: generally well-tolerated; also recorded: When administered in single or multiple oral doses in healthy adults, entospletinib monotherapy is generally well-tolerated
[4]
  Treatment-related AE: Headache: 10 (25.0) n (%)
  Treatment-related AE: Oropharyngeal pain: 5 (12.5) n (%)
  Treatment-related AE: Urinary tract infection: 1 (2.5) n (%)
[5]; 7 days of twice-daily dosing, fasted
  increase in exposure (C max and AUC) on day 7 compared with day 1: 2- to 4 fold
[5]; 25 mg twice daily oral, fasted
  C trough: 11.9 (64.5) ng/mL
[5]; 75 mg twice daily oral, fasted
  C trough: 79.2 (64.0) ng/mL
[5]; 200 mg twice daily oral, fasted
  C trough: 380 (63.3) ng/mL
[5]; 600 mg twice daily oral, fasted
  C trough: 1242 (65.6) ng/mL
[5]; 900 mg twice daily oral, fasted
  C trough: 1473 (67.2) ng/mL
[5]; 1200 mg twice daily oral, fasted
  C trough: 1471 (79.6) ng/mL
[5]; doses of 600 mg twice daily or higher
  steady-state C trough levels: > 1200 ng/mL
[5]; single and multiple oral administration, fasted
  terminal t ½: 9 h
[6]
  reduction in AUC under fed conditions: 20–80%
  reduction in C max under fed conditions: 20–70%
[7]
  IC50: ~2.5 µM
[8]; at 24 weeks
  progression-free survival (PFS) rate: 70.1%
[8]
  median PFS: 13.8 months
Clinical [9]
  half-life: ~9 h
Clinical [9]; 25 mg
  AUC(0-inf): 231 ng·h/mL
  Cmax: 42.3 ng/mL
  Tmax: 2 h
  half-life: 6.77 h
Clinical [9]; 75 mg
  AUC(0-inf): 413 ng·h/mL
  Cmax: 67.8 ng/mL
  Tmax: 2.75 h
  half-life: 5.31 h
Clinical [9]; 200 mg
  AUC(0-inf): 4250 ng·h/mL
  Cmax: 534 ng/mL
  Tmax: 2 h
  half-life: 9.51 h
Clinical [9]; 600 mg
  Cmax: 779 ng/mL
  Tmax: 2 h
  half-life: 7.72 h
Clinical [9]; 1200 mg
  AUC(0-inf): 9740 ng·h/mL
  Cmax: 1060 ng/mL
  Tmax: 3.25 h
  half-life: 9.59 h
Clinical [10]; [13]
  Tmax: 2.27 h
  half-life: 10 h
Clinical [10]; [14]
  Tmax: 2.25 h
  half-life: 15.4 h
Clinical [10]; po, 900 mg
  AUC(0-t): 5860 ng·h/mL
Clinical [10]; [15]
  Tmax: 2.75 h
  half-life: 13.9 h
Clinical [10]; doses ≤200 mg twice daily
  half-life: ~9 h

## COc1cc(Nc2ncc(F)c(Nc3ccc4c(n3)N(COP(=O)(O)O)C(=O)C(C)(C)O4)n2)cc(OC)c1OC [fostamatinib]
B cell malignancies; CLL/small lymphocyte leukemia
  overall response rate (ORR): 55%
B cell malignancies; DLBCL
  overall response rate (ORR): 22%
B cell malignancies; FL
  overall response rate (ORR): 10%
B cell malignancies; MCL
  overall response rate (ORR): 11%

Source: article PMC5250654 (Clinical Drug Investigation, 2016)
